Measured values from PubChem BioAssay (NCI).
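Method: 48-hour compound exposure of cells in 96-well plates, five concentrations, linear interpolation of endpoints. GI50 = concentration required for 50% inhibition of growth. TGI: concentration producing complete growth inhibition.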

How the values were obtained:
Assay in all cases: NCI tumour cell line growth inhibition, 48 h
[1] = system: MDA-MB-231 breast
[2] = system: NCI-H23 lung
[3] = system: TK-10 renal
[4] = system: IGROV1 ovarian
[5] = system: HCC-2998 colon
[6] = system: CAKI-1 renal
[7] = system: U251 CNS
[8] = system: MCF7 breast
[9] = system: SW-620 colon
[10] = system: SN12C renal
[11] = system: HCT-15 colon
[12] = system: 786-0 renal
[13] = system: NCI-H522 lung
[14] = system: OVCAR-5 ovarian
[15] = system: HS 578T breast
[16] = system: SF-539 CNS
[17] = system: NCI/ADR-RES ovarian
[18] = system: MOLT-4 leukemia
[19] = system: K-562 leukemia
[20] = system: SNB-19 CNS
[21] = system: M14 melanoma
[22] = system: RPMI-8226 leukemia
[23] = system: OVCAR-8 ovarian
[24] = system: SK-MEL-2 melanoma
[25] = system: SK-MEL-5 melanoma
[26] = system: SNB-75 CNS
[27] = system: SK-OV-3 ovarian
[28] = system: HOP-62 NSCLC
[29] = system: MDA-MB-435
[30] = system: EKVX NSCLC
[31] = system: BT-549 breast
[32] = system: SF-268 CNS
[33] = system: HOP-92 NSCLC
[34] = system: HCT-116 colon
[35] = system: UACC-257 melanoma
[36] = system: COLO 205 colon
[37] = system: T-47D breast
[38] = system: DU-145 prostate
[39] = system: NCI-H226 lung
[40] = system: ACHN renal
[41] = system: A498 renal
[42] = system: NCI-H460 lung
[43] = system: SF-295 CNS
[44] = system: SR leukemia
[45] = system: OVCAR-3 ovarian
[46] = system: PC-3 prostate
[47] = system: UO-31 renal
[48] = system: A549 NSCLC
[49] = system: UACC-62 melanoma
[50] = system: MALME-3M melanoma
[51] = system: HT29 colon
[52] = system: RXF 393 renal
[53] = system: KM12 colon
[54] = system: CCRF-CEM leukemia
[55] = system: SK-MEL-28 melanoma
[56] = system: HL-60(TB) leukemia
[57] = system: LOX IMVI melanoma
[58] = system: OVCAR-4 ovarian

## O=c1oc2cc(OC/C(=N/O)c3ccc(F)cc3)ccc2c2ccccc12
[1]
  GI50: 14.8 µM
  TGI: 30.3 µM
[2]
  GI50: 19.1 µM
  TGI: 34.2 µM
[3]
  GI50: 27 µM
  TGI: 81.2 µM
[4]
  GI50: 23.6 µM
  TGI: 42 µM
[5]
  GI50: 17 µM
  TGI: 30.7 µM
[6]
  GI50: 13.1 µM
  TGI: 33.4 µM
[7]
  GI50: 20.9 µM
  TGI: 45.5 µM
[8]
  GI50: 14.9 µM
  TGI: 38.4 µM
[9]
  GI50: 23.2 µM
  TGI: 44.6 µM
[10]
  GI50: 20.1 µM
  TGI: 37.3 µM
[11]
  GI50: 20.7 µM
  TGI: 42.4 µM
[12]
  GI50: 11.7 µM
  TGI: 25 µM
[13]
  GI50: 17.5 µM
  TGI: 37 µM
[14]
  GI50: 19.4 µM
  TGI: 40 µM
[15]
  GI50: 28.8 µM
  TGI: 63.1 µM
[16]
  GI50: 20.1 µM
  TGI: 36.4 µM
[17]
  GI50: 18 µM
  TGI: 36.2 µM
[18]
  GI50: 16.7 µM
  TGI: 42.7 µM
[19]
  GI50: 20.1 µM
  TGI: 46.3 µM
[20]
  GI50: 21.8 µM
  TGI: 46.3 µM
[21]
  GI50: 19.2 µM
  TGI: 33.7 µM
[22]
  GI50: 31.8 µM
  TGI: > 100 µM
[23]
  GI50: 22.5 µM
  TGI: 43.6 µM
[24]
  GI50: 21.3 µM
  TGI: 40 µM
[25]
  GI50: 20.9 µM
  TGI: 36.3 µM
[26]
  GI50: 23.7 µM
  TGI: 43.9 µM
[27]
  GI50: 24 µM
  TGI: 41.3 µM
[28]
  GI50: 18.1 µM
  TGI: 34.2 µM
[29]
  GI50: 17.3 µM
  TGI: 38.7 µM
[30]
  GI50: 20.9 µM
  TGI: 42.5 µM
[31]
  GI50: 21.7 µM
  TGI: 42.3 µM
[32]
  GI50: 21.1 µM
  TGI: 42.3 µM
[33]
  GI50: 23.6 µM
  TGI: 52.8 µM
[34]
  GI50: 15.8 µM
  TGI: 29.2 µM
[35]
  GI50: 22.9 µM
  TGI: 39.4 µM
[36]
  GI50: 25.3 µM
  TGI: 61.4 µM
[37]
  GI50: 35.4 µM
  TGI: > 100 µM
[38]
  GI50: 18.5 µM
  TGI: 34.7 µM
[39]
  GI50: 22.3 µM
  TGI: 40.6 µM
[40]
  GI50: 20.4 µM
  TGI: 41.6 µM
[41]
  GI50: 22 µM
  TGI: 37.7 µM
[42]
  GI50: 16.9 µM
  TGI: 35.2 µM
[43]
  GI50: 18.4 µM
  TGI: 41.5 µM
[44]
  GI50: 26.6 µM
  TGI: 69.2 µM
[45]
  GI50: 17.6 µM
  TGI: 40.6 µM
[46]
  GI50: 22.1 µM
  TGI: 49.1 µM
[47]
  GI50: 18.7 µM
  TGI: 35.2 µM
[48]
  GI50: 18.2 µM
  TGI: 45.7 µM
[49]
  GI50: 17.6 µM
  TGI: 33 µM
[50]
  GI50: 19.6 µM
  TGI: 42.8 µM
[51]
  GI50: 19.4 µM
  TGI: 43.2 µM
[52]
  GI50: 14.7 µM
  TGI: 32.5 µM
[53]
  GI50: 21.2 µM
  TGI: 53.5 µM
[54]
  GI50: 23 µM
  TGI: > 100 µM
[55]
  GI50: 20 µM
  TGI: 37.2 µM

## COc1ccc(/C(C#N)=C/c2cc(OC)c(OC)c(OC)c2)cc1
[1]
  GI50: 14.1 µM
  TGI: > 100 µM
[2]
  GI50: 20.1 µM
  TGI: 88.4 µM
[56]
  GI50: 13.2 µM
  TGI: 56.5 µM
[3]
  GI50: 37.4 µM
  TGI: > 100 µM
[4]
  GI50: 29.2 µM
  TGI: > 100 µM
[5]
  GI50: 23.1 µM
  TGI: > 100 µM
[6]
  GI50: 20.1 µM
  TGI: > 100 µM
[7]
  GI50: 26.2 µM
  TGI: > 100 µM
[8]
  GI50: 11.1 µM
  TGI: > 100 µM
[9]
  GI50: 13.6 µM
  TGI: > 100 µM
[10]
  GI50: 27.2 µM
  TGI: > 100 µM
[11]
  GI50: 7.96 µM
  TGI: > 100 µM
[12]
  GI50: 41.3 µM
  TGI: > 100 µM
[13]
  GI50: 15.7 µM
  TGI: 56.3 µM
[14]
  GI50: 35.3 µM
  TGI: > 100 µM
[15]
  GI50: 38.7 µM
  TGI: > 100 µM
[16]
  GI50: 16.1 µM
  TGI: 58 µM
[17]
  GI50: 13.2 µM
  TGI: 65.1 µM
[18]
  GI50: 20.2 µM
  TGI: 66 µM
[19]
  GI50: 4.64 µM
  TGI: 31.3 µM
[20]
  GI50: 28 µM
  TGI: > 100 µM
[21]
  GI50: 19.3 µM
  TGI: > 100 µM
[22]
  GI50: 16.6 µM
  TGI: 56.1 µM
[23]
  GI50: 30.7 µM
  TGI: > 100 µM
[24]
  GI50: 21.9 µM
  TGI: 82.2 µM
[25]
  GI50: 10.7 µM
  TGI: 28.7 µM
[26]
  GI50: 11.6 µM
  TGI: 87.7 µM
[57]
  GI50: 22.2 µM
  TGI: > 100 µM
[27]
  GI50: 35.8 µM
  TGI: > 100 µM
[28]
  GI50: 34.3 µM
  TGI: > 100 µM
[29]
  GI50: 2.19 µM
  TGI: 12.5 µM
[31]
  GI50: 21.1 µM
  TGI: 70 µM
[32]
  GI50: 39.6 µM
  TGI: > 100 µM
[34]
  GI50: 22.9 µM
  TGI: > 100 µM
[35]
  GI50: 31 µM
  TGI: > 100 µM
[36]
  GI50: 20.1 µM
  TGI: 64.8 µM
[37]
  GI50: 17 µM
  TGI: 67.6 µM
[38]
  GI50: 40.1 µM
  TGI: > 100 µM
[58]
  GI50: 38.4 µM
  TGI: > 100 µM
[39]
  GI50: 29.1 µM
  TGI: > 100 µM
[40]
  GI50: 23.5 µM
  TGI: > 100 µM
[41]
  GI50: 22.7 µM
  TGI: > 100 µM
[42]
  GI50: 29.6 µM
  TGI: > 100 µM
[43]
  GI50: 15 µM
  TGI: 41.9 µM
[44]
  GI50: 3.36 µM
  TGI: 41.5 µM
[45]
  GI50: 33.8 µM
  TGI: > 100 µM
[46]
  GI50: 15.6 µM
  TGI: 67.9 µM
[47]
  GI50: 15.3 µM
  TGI: 68.8 µM
[48]
  GI50: 23.6 µM
  TGI: > 100 µM
[49]
  GI50: 14.1 µM
  TGI: > 100 µM
[50]
  GI50: 7.68 µM
  TGI: 56.7 µM
[51]
  GI50: 11.8 µM
  TGI: 85.8 µM
[52]
  GI50: 20.6 µM
  TGI: > 100 µM
[53]
  GI50: 12.7 µM
  TGI: > 100 µM
[54]
  GI50: 22.1 µM
  TGI: 78.6 µM
[55]
  GI50: 27.4 µM
  TGI: > 100 µM
